For one data set, the target named is T1, (UniProt A0A890JDX9).
T1 construct: gene hcdE; recombinant C-terminally His6-tagged protein
In words: spectrophotometric NADPH oxidation kinetics with purified enzyme; substrate and substrate inhibitor. The class given is biochemical, Pseudomonas mandelii. An excerpt:
spectrophotometric NADPH oxidation kinetics with purified enzyme; substrate and substrate inhibitor on HcdE | 7-hydroxycoumarin was likely a pseudo-competitive inhibitor characterized by the inhibition constant Ki

In data set [1] the test system is NC(=O)C1=CN([C@@H]2O[C@H](COP(=O)(O)OP(=O)(O)OC[C@H]3O[C@@H](n4cnc5c(N)ncnc54)[C@H](OP(=O)(O)O)[C@@H]3O)[C@@H](O)[C@H]2O)C=CC1. Description: purified protein. To be noted: varied: cofactor.

pKi: −log10 of the molar value.

T1 sequence (A0A890JDX9 1-376 limits assumed): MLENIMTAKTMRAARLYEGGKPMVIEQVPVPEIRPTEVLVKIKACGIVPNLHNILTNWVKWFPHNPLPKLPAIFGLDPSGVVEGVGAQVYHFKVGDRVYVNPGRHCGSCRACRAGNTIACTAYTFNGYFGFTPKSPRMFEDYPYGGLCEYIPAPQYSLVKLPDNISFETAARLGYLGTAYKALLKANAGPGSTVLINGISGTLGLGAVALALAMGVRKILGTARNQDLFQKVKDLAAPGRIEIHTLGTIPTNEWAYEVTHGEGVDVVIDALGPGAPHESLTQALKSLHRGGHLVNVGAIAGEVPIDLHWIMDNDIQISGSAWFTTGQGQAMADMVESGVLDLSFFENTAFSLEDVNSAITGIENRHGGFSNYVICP

In turn, `O=c1ccc2ccc(O)cc2o1` [compound 1, 7-hydroxycoumarin] gave a pKi on (UniProt A0A890JDX9) of 1.66.

Regarding HcdE (Pseudomonas mandelii), the Km in data set [1] was determined as 20 µM.

A word on the pKi: it is the negative decadic logarithm of the Ki, by convention in mol/L. As usually defined, the Km is the concentration of substrate that gives half-maximal velocity.

The values above are taken from publication PMC7913881, “The First Step of Biodegradation of 7-Hydroxycoumarin in Pseudomonas mandelii 7HK4 Depends on an Alcohol Dehydrogenase-Type Enzyme” (International Journal of Molecular Sciences, 2021).
